# Measurements published in patent US8853264B2, “Use of lignan compounds for treating or preventing inflammatory disease” (Newtree Industry Co., Ltd., priority 2005, dated 2014).
# Legend:
# [1] = Toxicity in oral administration to rats; details: rat, in vivo, read-out: 50% lethality (LD50)
# Procedure: The inventive lignan compound was tested for toxicity in oral administration to rats, and as a result, it was observed that the 50% lethality (LD50) was more than 2,000 mg/kg.
# IgE = experiment: Total IgE in serum, mite antigen-induced atopic dermatitis; assay type: in vivo, NC/Nga mice; details: for IgE: 2 weeks, serum; for total IgE level compared to the positive control group: p<0.01
# Procedure: 8-week-old NC/Nga mice (20-25 g) were purchased from Chungang Lab. Animal. After adapting for 1 week, the NC/Nga mouse was anesthetized with 90% ethyl ether (Ducsan, Korea) and hair was removed from the occipital region and the back of the mouse using depilatory cream (Reckitt Benckiser, France). After allowing micro wound healing for a day, 100 mg of mite antigen cream (Biostir, Inc. Japan) comprising Dermatophagoides farina, which causes atopic dermatitis, as a main ingredient was evenly applied on the ear, occipital region and back, 3 times a week (for 5 weeks, from week 9 to week 13). 2 hours before application of the mite antigen cream, 4% SDS solution was applied at the same area to increase transdermal absorption of the mite antigen cream by inducing the breakdown of skin fats and cuticle layer. From week 3 following the application, IgE value was measured to quantitate the degree of atopic dermatitis. Also during the drug treatment period (week 12 to week 13), 100 mg of the mite antigen cream was applied 3 times a week to prevent spontaneous healing of the atopic dermatitis.
# In order to induce atopic dermatitis, 100 mg of mite antigen cream was applied on the ear, occipital region and back of NC/Nga mouse (9 to 11 weeks old), except for the negative control group, 3 times a week, 2 hours after the application of 4% SDS solution. Three weeks later, it was observed whether atopic dermatitis was induced by checking skin rash, erythema, cornification, or the like. Atopic dermatitis was induced in all groups except for the negative control group. For drug treatment and evaluation of therapeutic effect, mice were grouped into 12 groups, 6 oral administration groups and 6 topical application groups (each consisting of negative control group, positive control group, macelignan low conc. group, macelignan high conc. group, nutmeg extract low conc. group, and nutmeg extract high conc. group), with n=5 per cage. During the following drug treatment and evaluation period of 2 weeks (12 to 13 weeks old), the negative control groups, which had not been treated with 4% SDS solution and mite antigen cream, were treated with physiological saline (oral administration group) or base cream (topical application group) every day, and the positive control groups, which had been treated with 100 mg of mite antigen cream 2 hours after application of 4% SDS solution, 3 times every week, were treated with physiological saline (oral administration group) or base cream (topical application group). The oral administration groups were treated with 100 mg of mite antigen cream 2 hours after application of 4% SDS solution, 3 times every week, and were treated with macelignan or nutmeg extract at low concentration (50 mg/kg/day) or high concentration (150 mg/kg/day) every day. The topical application groups were treated with 100 mg of mite antigen cream 2 hours after application of 4% SDS solution, 3 times every week, and were treated with macelignan cream or nutmeg extract cream at low concentration (20 mg/kg/day) or high concentration (60 mg/kg/day) every day. Transepidermal water loss (TEWL), skin hydration and erythema index were measured one day before the end of the test. Serum was obtained by retro-orbital blood sampling. After the end of the test (14 weeks old) spleen and skin tissues from occipital region and back were sampled and stored at −70° C. ALN (axillary lymph node) was stored in DMEM containing 2% FBS (fetal bovine serum). The skin tissues were stored in 10% formalin solution.
# Blood was taken by retro-orbital blood sampling using a capillary tube (Chase Scientific Glass, Inc., USA), which was centrifuged at 13,000 rpm to obtain serum. IgE level was measured using a mouse IgE ELISA kit (Immunology Consultants Laboratory, Inc., USA).
# NO = NO production in RAW264.7 cells activated with LPS (Griess); assay type: cell-based
# Procedure: RAW264.7 cells were diluted at a concentration of 1×10^6 cell/ml and then inoculated into RPMI 1640 medium. After 5 hours, the inventive macelignan was added to the medium at each of a concentration of 1-20 μM, followed by incubation for 2 hours. Then, the medium was treated with LPS (10 μg/ml) and incubated for 24 hours. A control group was treated only with LPS. The production of NO was quantified by measuring NO2^−, a reaction product of NO, using the remains of cell culture (Han et al., Life Sci., 75(6): 675-684, 2004). 100 μl of the remains of cell culture and the same volume of Greiss reagent (0.5% sulfanilyamide, 0.05% N-(1-naphthyl)ethylene diamine dihydrochloride/2.5% H3PO4) were mixed with each other on a 96-well tissue culture plate and allowed to react in a dark place for 10 minutes. Then, the absorbance of the sample was measured at 550 nm using the ELISA microplate reader. […] All tests were repeated at three times, and then quantified by student's t-test.
# eosinophils = experiment: Counting of immune cells in bronchioalveolar lavage (BAL) fluid, asthma model; assay type: in vivo, C57BL/6 (B6) male mice; details: oral 400 μg/g and 800 μg/g
# Procedure: 5 μL of allergen, AP (aspergillus protease, 1 mg/mL, Sigma-Aldrich, St. Louis, Mo.) was mixed with 45 μL of OVA (chicken egg ovalbumin, 0.5 mg/mL, Sigma-Aldrich). After 3 intraperitoneal injections with 4-day intervals, asthma was induced by 2 intranasal challenges with 4-day interval. The intranasal challenge was performed under isoflurane inhalational anesthesia. Macelignan dissolved in corn oil was orally administered every day.
# Within 24 hours after the last allergen challenge, the mouse was anesthetized by intraperitoneal injection of 0.1 mg/g sodium pentobarbital. After tracheal intubation, flexiVent (Scireq®, Montreal, Canada) was connected to maintain stable ventilation. Thereafter, striated muscle was relaxed by intravenous (IV) administration of 0.08 mg/kg pancuronium (Sigma-Aldrich). Following airway hypersensitivity test by IV administration of acetylcholine (Sigma-Aldrich), 1 mL of DPBS (Dulbecco's phosphate buffered saline) was injected twice into the intubation tube using a syringe for bronchioalveolar lavage. Thereafter, the chest was opened and the lungs were subjected to ELISpot assay. […]
# When asthma is induced, various inflammatory cells increase in the airway. […] After performing BAL once again and collecting the BAL fluid, its volume was measured. […]
# [2] = Clinical visual evaluation of skin lesion, atopic dermatitis model; assay type: in vivo, NC/Nga mice
# Procedure: In order to induce atopic dermatitis, 100 mg of mite antigen cream was applied on the ear, occipital region and back of NC/Nga mouse (9 to 11 weeks old), except for the negative control group, 3 times a week, 2 hours after the application of 4% SDS solution. Three weeks later, it was observed whether atopic dermatitis was induced by checking skin rash, erythema, cornification, or the like. Atopic dermatitis was induced in all groups except for the negative control group. For drug treatment and evaluation of therapeutic effect, mice were grouped into 12 groups, 6 oral administration groups and 6 topical application groups (each consisting of negative control group, positive control group, macelignan low conc. group, macelignan high conc. group, nutmeg extract low conc. group, and nutmeg extract high conc. group), with n=5 per cage. […] Transepidermal water loss (TEWL), skin hydration and erythema index were measured one day before the end of the test. […]
# Prior to the end of the experiment, the lesions of the mice were photographed. The change of the skin lesion was evaluated visually.
# [3] = oral administration 50 and 150 mg/kg
# [4] = topical application 20 and 60 mg/kg
smiles,measurement,setting,value
"COc1cc(C[C@H](C)[C@H](C)Cc2ccc3c(c2)OCO3)ccc1O (single isomer, unassigned) [macelignan]",LD50,[1],> 2000 mg/kg
same,IgE,IgE; oral administration 50 mg/kg/day,19.6 ± 13.5 µg/mL
same,IgE,IgE; oral administration 150 mg/kg/day,16.6 ± 5.3 µg/mL
same,total IgE level compared to the positive control group,IgE; [3],statistically significant decrease in total IgE level
same,total IgE level compared to the positive control group,IgE; [4],statistically significant decrease in total IgE level
same,IgE,IgE; topical application (cream) 20 mg/kg/day,22.1 ± 3.6 µg/mL
same,IgE,IgE; topical application (cream) 60 mg/kg/day,18.6 ± 4.1 µg/mL
same,inhibition of NO production at low concentrations,"NO; 1 μM and 5 μM, P<0.01",excellent effects on the inhibition of NO production
same,production of NO at 20 μM,NO; 20 μM macelignan,inhibited to an extent almost similar to that of the group treated with nothing
same,production of NO,"NO; 1-20 μM, LPS 10 μg/ml, 24 hours",concentration-dependently inhibited
same,other immune cells in the BAL fluid,eosinophils,Decrease of other immune cells was not observed
same,eosinophils in the BAL fluid,eosinophils; vs vehicle (corn oil) group,decreased eosinophils
same,clinical visual evaluation of skin lesion,[2]; [3],"remarkable decrease in erythema/hemorrhage, dryness/scarring, edema, excoriation/erosion and lichenification and improvement in atopic dermatitis"
same,clinical visual evaluation of skin lesion,[2]; [4],"remarkable decrease in erythema/hemorrhage, dryness/scarring, edema, excoriation/erosion and lichenification and improvement in atopic dermatitis"
